For one series, the system named is CEM-SS or H9 cells. Put plainly: Cell viability (MTT) assay. Type of series: cell-based, human. Particulars: up to 500 μM, 72 h. As for the experimental part:
H9 and H9/HIV-1IIIB cell lines were obtained through American Type of Culture Collection (Manassas, Va., USA). CEM-SS cell line from Dr. P. Nara and C8166 cell line from Dr. G. Farrar were provided by the EU Programme EVA Centre for AIDS Reagents, NIBSC, UK. CEM-SS, C8166, H9 and H9/HIV-1IIIB cell lines were grown in RPMI 1640 medium supplemented with 10% FBS, 100 μg of streptomycin per ml and 100 U of penicillin per ml. HIV-1IIIB virus stock was obtained from the culture supernatant of chronically infected H9/HIV-1IIIB cells. Cell-free virus was harvested from the supernatants by centrifugation and filtration through 0.22 μM filter. The virus stocks were stored as small aliquots at […] until use.
The cytotoxic concentrations of 6,6′-bieckol were determined by MTT assay, a method based on the reduction of 3-(4,5-dimethylthiazol-2-yl)-2,5-diphenyltetrazolium bromide (MTT). Four hundreds of microliters of medium containing CEM-SS or H9 cells were cultured into a 48-well plate at a density of 10^5 cells/ml. The plate was incubated overnight and treated with 100 μl of RPMI 1640 medium with/without 6,6′-bieckol. After 72 h of incubation, 100 μl of 500 μg/ml MTT was added to each well and the plate was incubated for another 4 h at 37° C. […] Optical density was measured at 540 nm with a microplate reader. […]

In series [1] the test system is HIV-1IIIB. Put plainly: HIV-1 p24 antigen capture ELISA in H9 cells. Particulars: ELISA (FIG. 1D). The class given is cell-based. More on the design: dose or concentration left out as unconfirmed. On the procedure:
H9 cells (3×10^6 cells/ml) were incubated in the presence or absence of HIV-1IIIB for 1 h at 37° C. Cells were washed to remove unbound viruses and resuspended at 3×10^5 cells/ml in culture medium. Aliquots of 1 ml were placed in a 24-well culture plate containing an equal volume of medium with/without 6,6′-bieckol.
AZT was treated as positive control. In order to determine the amount of virus released to the medium, HIV-1 p24 antigen capture ELISA was carried out with a commercial kit (Perkin-Elmer Life Sciences, Boston, Mass.) according to the manufacturer's instructions.
(In an ELISA, binding on a coated surface is turned into a signal by an enzyme label.)

The target in series [2] is T1, HIV-1 reverse transcriptase (Human immunodeficiency virus type 1 group M subtype B, UniProt P04585).
T1 construct: HIV-1 reverse transcriptase in the viral lysate; endogenous in cells; host or cells: lysate of virus particles produced by infected cell culture (viral lysate)
Put plainly: Reverse transcriptase activity assay (fluorescence RT kit, viral lysate). Type of series: biochemical. Particulars: RT from cell culture supernatant. More on the design: HIV-1 RT enzyme activity inhibited: dose or concentration left out as unconfirmed. As for the experimental part: The activity of HIV-1 reverse transcriptase in the viral lysate was evaluated using a fluorescence RT assay kit (InvitroGen) according to the manufacturer's protocol. Briefly, 20 μl of reaction mixture containing a template/primer hybrid, poly(A)/d(T)16, and dTTP as a triphosphate substrate was added to the wells of amicrotiter plate and mixed with 5 μl of viral lysate containing various concentrations of 6,6′-bieckol. After incubation at 37° C. for 1 h, the reaction was stopped by the addition of 2 μl of 200 mM EDTA to each reaction. Fluorescence intensity was measured at 480 nm (excitation) and 520 nm (emission) with a GENiosmicroplate reader (Tecan Austria GmbH, Austria) after the addition of 173 μl of fluorescent PicoGreenreagent, which selectively binds to dsDNA or DNA-RNA heteroduplexes over single-stranded nucleic acids or free nucleotides.

Series [3] concerns HIV-1IIIB. The series can be described thus: Co-cultivation assay (C8166 cells with H9 cells chronically infected with HIV-1IIIB). Type of series: cell-based. Particulars: highest concentration treated; C8166 + H9/HIV-1IIIB, 72 h. As for the experimental part: 3×10^4 C8166 cells were pre-treated with various concentrations of 6,6′-bieckol for 2 h and co-cultured with 3×10^3 H9 cells chronically infected with HIV-1IIIB at 37° C. in a humidified atmosphere of 5% CO2. After 72 h of incubation, the number of syncytia formed was counted using a microscope.

Series [4] deals with HIV-1IIIB. The series can be described thus: Western blot analysis of p24 / gag proteins in HIV-1IIIB infected H9 cells. Type of series: cell-based. On the procedure: 1×10^6 cells/ml H9 cells were cultured in cell culture plates. Following sample treatment, plates were incubated for 2 h and infected with HIV-1IIIB at 200 CCID50. After 96 h of incubation at 37° C., cells were pelleted at 1000 rpm for 10 min and supernatant was harvested. The cells were washed 3 times with PBS and lysed with 500 μl of lysis buffer containing 50 mM Tris-HCl (pH 7.5), 0.4% Nonidet P-40, 120 mM NaCl, 1.5 mM MgCl2, 2 mM phenylmethylsulfonyl fluoride, 80 μg/ml leupeptin, 3 mM NaF, and 1 mM DTT. Hundred micrograms of total protein was used for immunoblot analysis.
Culture supernatant containing virus was filtered through 0.22 μm filter, mixed with 30% polyethylene glycol (PEG) (50% v/v) with 0.4 M NaCl, and virus particles were pelleted at 15000 rpm for 45 min. The viral pellets were lysed, resuspended in SDS sample buffer and equal volume of viral lysates (20 μl) was loaded onto SDS gel. The proteins were subjected to denaturating SDSAGE in 25 mM Tris, 192 mM glycine, 0.1% SDS with a 4% stacking, and 10% separating gel. Separated proteins were transferred onto a nitrocellulose membrane, blocked in Tris buffered saline containing 0.1% (v/v) Tween 20 (TBS-T) and 5% skim milk powder. The membrane was probed with mouse anti-p24 monoclonal antibody (1:500, SantaCruz) and horseradish peroxidase (HRP)-conjugated anti-mouse IgG secondary antibody (1:5000, SantaCruz). […]
For orientation: Immunoblotting shows a protein as a band on a membrane.

One compound from patent US20110288314A1, “PHLOROGLUCINOL DERIVATIVES FROM ECKLONIA CAVA HAVING ANTI-HIV-1 INHIBITORY ACTIVITY” (priority 2008, published 2011) can be followed below.

Molecules are shown by their SMILES.

Turning to `Oc1cc(O)cc(Oc2c(O)cc(O)c3c2Oc2c(O)cc(O)c(-c4c(O)cc(O)c5c4Oc4c(O)cc(O)c(Oc6cc(O)cc(O)c6)c4O5)c2O3)c1` [6,6′-bieckol], in the series with CEM-SS or H9 cells, the cytotoxicity entry was “no cytotoxicity”. For the same compound, the “inhibition of production of p24 antigen” value in the series on HIV-1IIIB [1] was “more than 90%”. In addition, the inhibition at 1 µM in series [2] (1 μM, read-out: HIV-1 RT enzyme inhibition) worked out at 50.5%. Besides, the “HIV-1 RT enzyme activity inhibited” value in series [2] was 96.33%. Further, the “inhibition of syncytia formation in co-cultivation assay” value in the series with HIV-1IIIB [3] is on record as “around 80%”. Moreover, in the series with HIV-1IIIB [4] (Western blot), the “protease inhibition judged from p55 gag related protein bands” value is given as “did not inhibit the protease”. In addition, the “inhibition of p24 antigen production versus AZT” value in the series on HIV-1IIIB [4] (of 6,6′-bieckol vs AZT 5 μM (FIG. 2C)) is on record as “comparable to that of AZT”.

The term inhibition denotes the share of the control response that was lost under treatment.
